# Test results as given in patent US20020001582A1, “Methods and compositions for inhibiting microbial growth” (priority 1999, published 2002).
# Experiments:
# Fusarium = assay: Lysozyme against Fusarium inoculated from liquid broth; format: cell-based
# Method: PD broth was prepared and autoclaved in dilution bottles (100 ml) and allowed to cool. Various amounts of lysozyme were added into the bottles and dissolved. […] One ml of Fusarium broth was transferred into each dish and the contents were mixed well. The plates were incubated at room temperature for 2 weeks. The trial was carried out in triplicate and was repeated three times. Pictures of the fungi were taken daily using a digital camera and the data was transferred on to the computer and processed.
# Sclerotinia homoeocarpa [1] = assay: Suppressive treatment of mature bentgrass (lysozyme 24 and 48 hours after inoculation); format: in vivo; details: day 7, 14 or 21, except 5,000 ppm on day 21
# Method: (§1) One year old bentgrass (Agrotis spp.) cv Pennlink was used as the host in this trial. It was grown in an open field at Select Sand Farm in Fort Langley, B.C. Round pieces of turfgrass, 6 cm diameter, were cut out and placed on 5 cm high pots (made from PVC pipes) containing steam sterilized river washed sand. The potted grass was regularly watered, fertilized and maintained at a cutting height of approximately 2.0 cm above the soil surface.
# (§2) The efficacy of egg white lysozyme was tested on Sclerotinia homoeocarpa. Virulent isolates of the test fungi were grown on a rye grain medium for approximately one week. This medium consisted of 50 g of rye grain, 1 g of CaCO3, and 75 ml of water. The medium was prepared in a 250 ml Erlenmeyer flask and autoclaved for 30 minutes. Three to five plugs of the actively growing mycelia from one-week-old culture on potato dextrose agar were transferred into flasks, and incubated in the dark at room temperature.
# In a second test three weeks after it was potted, the bentgrass was first inoculated with the test fungi by placing 3 infected rye kernels in the center of the pot, just above the soil surface. After inoculation, the pots were placed in humidity chambers on a greenhouse bench. Temperature during incubation was maintained at 27-30° C. for disease development. […]
# (§3) Pots were removed from the humidity chamber and evaluated individually for disease severity. […]
# [2] = test system: Fusarium (IM095, Turfgrass isolate); assay: Minimum effective treatment concentration, fungal plug in 1/5 potato dextrose broth; format: cell-based
# Method: (§4) Fungal cultures isolated from turfgrass were collected from different sources including B.C. Ministry of Agriculture, Fisheries and Food and ATCC.
# (§5) ⅕ potato dextrose broth was prepared and autoclaved in Erlenmeyer flasks and allowed to cool. Different amounts of egg white lysozyme (Canadian Inovatech, Inc., B.C.) was weighed out and added directly into the flasks. Ten milliliters of broth was dispensed into sterile petri dishes.
# (§6) A fungal square (“plug”) of each culture was cut and placed in/near the center of each plate. The petri dishes were then incubated at 22-25° C. During incubation, the petri dishes were evaluated individually by measuring the diameter of fungal growth.
# [3] = test system: Gaeumannomyces graminis var.avenae (IM084); assay: as above; format: cell-based
# Method: as §4, §5, §6
# [4] = test system: Sclerotinia homoeocarpa (IM088); assay: as above; format: cell-based
# Method: as §4, §5, §6
# [5] = test system: Gaeumannomyces graminis 97-923 (IM100); assay: as above; format: cell-based
# Method: as §4, §5, §6
# [6] = test system: Rhizoctonia solani (IM085); assay: as above; format: cell-based
# Method: as §4, §5, §6
# Curvularia (Poa) (IM094) = assay: as above; format: cell-based
# Method: as §4, §5, §6
# [7] = test system: Typhula incarnata (IM086); assay: as above; format: cell-based
# Method: as §4, §5, §6
# [8] = test system: Gaeumannomyces graminis 97-923 (IM099); assay: as above; format: cell-based
# Method: as §4, §5, §6
# Rhizoctonia spp. (IM079) = assay: as above; format: cell-based
# Method: as §4, §5, §6
# S. homoeocarpa = assay: Suppression of fungal disease on young bentgrass, greenhouse trial; format: in vivo
# Method: (§7) Creeping bentgrass (Agrotis spp.) cv. Penncross was used as the host in the greenhouse trials. This species is widely used in golf greens and is easily managed under greenhouse conditions. Bentgrass was seeded in 6 cm diameter and 5 cm height pots (made from PVC pipes) containing steam sterilized river washed sand. A seeding rate of 0.1 g/pot was used to ensure rapid establishment of a uniform, dense stand. Throughout the experiment, the grass was regularly watered, fertilized and maintained at a cutting height approximately 2.0 cm above the soil surface.
# (§8) Virulent isolates of test fungi were grown on a rye grain medium for approximately one week. This medium consisted of 50 g of rye grain, 1 g of CaCO3, and 75 ml of water. It was prepared in a 250 ml Erlenmeyer flask and autoclaved for 30 minutes. Three to five plugs of the actively growing mycelia from week old cultures on potato dextrose agar were transferred into flasks, and incubated in the dark at room temperature.
# (§9) Pots of eight-week-old bentgrass were inoculated with the test fungi by placing 2-3 kernels of infected rye in the center of the grass area, just above the soil surface. After inoculation, pots were placed in humidity chambers on a greenhouse bench. Temperature during incubation was maintained at 27-30° C. for disease development and the growth of the test fungi.
# (§10) Approximately 1.6-2.4 ml was applied to each pot and the treatment was repeated 24 hours later. Untreated bentgrass was used as a control. All treatments were replicated 8 times and arranged in a completely randomized design. This trial was repeated three times.
# G. graminis = assay: as above; format: in vivo; details: 5,000 and 10,000 ppm
# Method: as §7, §8, §9, §10
# Sclerotinia homoeocarpa [9] = assay: Protective treatment of mature bentgrass (lysozyme 24 hours before inoculation); format: in vivo
# Method: as §1, §2
# Lysozyme was applied with a hand held spray bottle. Treated and untreated bentgrass was then inoculated with the test fungi by placing 3 infected rye kernels in the center of the pot, just above the soil surface. After inoculation, the pots were placed in humidity chambers on a greenhouse bench. […]
# as §3
substance,measurement,setting,value
"lysozyme: type c egg white lysozyme, enzyme of approximately 129 amino acids; commercially available from Canadian Inovatech, Inc.",inhibition against Fusarium,Fusarium; 100 ppm or lower,not very effective
same,inhibition against Fusarium,Fusarium; 250 ppm,very good inhibition
same,time for which growth of Fusarium is limited,Fusarium; 250 ppm,two weeks
same,reducing the infection of S. homoeocarpa,Sclerotinia homoeocarpa [1],not effective
same,Comment,"[2]; 250 ppm, 25 day",Excellent
same,Minimum effective treatment concentration of lysozyme,[2]; duration of trial 25 day,250 ppm
same,Comment,"[3]; 500 ppm, 13 day",Excellent
same,Minimum effective treatment concentration of lysozyme,[3]; duration of trial 13 day,500 ppm
same,Comment,"[4]; 1000 ppm, 21 day",Fair-good
same,Minimum effective treatment concentration of lysozyme,[4]; duration of trial 21 day,1000 ppm
same,Comment,"[5]; 1000 ppm, 21 day",Excellent
same,Minimum effective treatment concentration of lysozyme,[5]; duration of trial 21 day,1000 ppm
same,Comment,"[6]; 250 ppm, 13 day",Fair-good
same,Minimum effective treatment concentration of lysozyme,[6]; duration of trial 13 day,250 ppm
same,Comment,"Curvularia (Poa) (IM094); 1000 ppm, 21 day",Fair-good
same,Minimum effective treatment concentration of lysozyme,Curvularia (Poa) (IM094); duration of trial 21 day,1000 ppm
same,Comment,"[7]; 1000 ppm, 21 day",Excellent
same,Minimum effective treatment concentration of lysozyme,[7]; duration of trial 21 day,1000 ppm
same,Comment,"[8]; 1000 ppm, 21 day",Excellent
same,Minimum effective treatment concentration of lysozyme,[8]; duration of trial 21 day,1000 ppm
same,Comment,"Rhizoctonia spp. (IM079); 150 ppm, 38 day",Excellent
same,Minimum effective treatment concentration of lysozyme,Rhizoctonia spp. (IM079); duration of trial 38 day,150 ppm
same,S. homoeocarpa inhibition compared to the untreated control,"S. homoeocarpa; 2,500, 5,000 and 10,000 ppm sprayed 24 and 48 h after inoculation, day 7, 14 and 21",significant S. homoeocarpa inhibition
same,"infection compared with bentgrass treated with 2,500 ppm","S. homoeocarpa; 5,000 and 10,000 ppm, day 14 and 21 after inoculation",significantly less infection
same,control against G. graminis,G. graminis,good control
same,differences in disease severity among the three lysozyme concentrations,"Sclerotinia homoeocarpa [9]; 5,000, 10,000, 20,000 ppm",no significant differences
same,disease severity compared to the untreated control,"Sclerotinia homoeocarpa [9]; 5,000, 10,000 or 20,000 ppm, day 7, 10 or 21 after inoculation, p≦0.01",significant reductions
